Test systems include OVCAR-3 ovarian; HCT-116 colon; SN12C renal; EKVX NSCLC; U251 CNS; TK-10 renal; UO-31 renal; NCI-H23 lung; SF-539 CNS; SNB-19 CNS.
Experiment in all cases: NCI-60 cell line screen, 48 h

The record followed here is PubChem BioAssay (NCI).

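Grown in 96-well plates, cells were treated for 48 hours with each compound at five concentrations. Insufficient inhibition: endpoint recorded as highest concentration tested. Here, GI50 denotes the concentration required for 50% inhibition of growth. At the TGI there is no net growth.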

`Cn1ccnc1C(=O)/C=C/c1ccccc1`: the GI50 is 3.22 µM in the test with OVCAR-3 ovarian; 2.72 µM in the test on HCT-116 colon; 3 µM in the test with SN12C renal; 11.6 µM with EKVX NSCLC; 3.21 µM in the test with U251 CNS; 5.83 µM in the test on TK-10 renal. The GI50 is 4.69 µM in the test with UO-31 renal, 3.76 µM with NCI-H23 lung and 2.18 µM in the test with SF-539 CNS. Further, the TGI in the test with OVCAR-3 ovarian was 8.5 µM; in the test with HCT-116 colon it was 12.2 µM; in the test on SN12C renal, 17.3 µM; in the test with EKVX NSCLC it was 25.1 µM; in the test on U251 CNS, 13.9 µM; in the test with TK-10 renal it was 19.1 µM. Moreover, the TGI in the test on UO-31 renal amounted to 71.4 µM; in the test with NCI-H23 lung, 25.4 µM; in the test with SF-539 CNS, 4.78 µM.
With `COc1cc(OC)c(C2CC=Cc3c(OC)cc(OC)c(OC)c32)cc1OC` (stereo not given), the TGI in the test on OVCAR-3 ovarian, in the test on HCT-116 colon, in the test on SN12C renal, in the test with EKVX NSCLC, in the test on U251 CNS and in the test with TK-10 renal was greater than 100 µM each time. Besides, the TGI in the test with UO-31 renal, in the test with NCI-H23 lung and in the test with SF-539 CNS was greater than 100 µM throughout.
As to `CCCCCCCCCc1cccc(N2C(N)=NC(N)=NC2(C)C)c1`, the TGI in the test with OVCAR-3 ovarian was found to be 0.193 µM; with HCT-116 colon, 1.15 µM; in the test with SN12C renal it was 2.33 µM; with EKVX NSCLC it was 10.5 µM; in the test on U251 CNS, 0.62 µM; in the test on TK-10 renal, 1.48 µM. The TGI was greater than 42.4 µM with UO-31 renal, 0.277 µM in the test with NCI-H23 lung and 2.1 µM in the test with SF-539 CNS.
In the case of `O=C(Nc1nc2ncn(CCNCc3ccccc3)c2c(=O)[nH]1)c1ccccc1`, the TGI in the test on OVCAR-3 ovarian, in the test with HCT-116 colon, with SN12C renal, in the test on EKVX NSCLC, in the test on U251 CNS and in the test with TK-10 renal was greater than 100 µM in each case. The TGI in the test with UO-31 renal and in the test on SF-539 CNS was greater than 100 µM each time.
In the case of `O=CC[C@H]1CCc2ccccc2C12CCC(=O)CC2`, the TGI in the test with SNB-19 CNS, in the test on OVCAR-3 ovarian, in the test with HCT-116 colon, in the test on SN12C renal, in the test with UO-31 renal and in the test with SF-539 CNS was greater than 100 µM throughout.
`CCC1CCc2nc3sc(C(=O)Nc4cccc(F)c4)c(N)c3cc2C1` (stereo not given): the GI50 with SNB-19 CNS is greater than 100 µM; in the test on OVCAR-3 ovarian it was 0.757 µM; in the test with HCT-116 colon, 2.25 µM; in the test on SN12C renal, greater than 100 µM; with U251 CNS, greater than 100 µM; in the test with TK-10 renal, greater than 100 µM. The GI50 with UO-31 renal, in the test with NCI-H23 lung and in the test on SF-539 CNS was greater than 100 µM throughout. The TGI in the test on SNB-19 CNS, in the test on OVCAR-3 ovarian, with HCT-116 colon, in the test with SN12C renal, in the test on U251 CNS and with TK-10 renal was greater than 100 µM throughout. Moreover, the TGI with UO-31 renal, in the test on NCI-H23 lung and in the test with SF-539 CNS was greater than 100 µM in each case.
As to `O=[N+]([O-])c1cccc(-c2oc(C=Nc3ccccc3)c([N+](=O)[O-])c2-c2cccc([N+](=O)[O-])c2)c1`, the TGI in the test on OVCAR-3 ovarian, with HCT-116 colon, in the test with EKVX NSCLC, in the test with U251 CNS, in the test with TK-10 renal and in the test on UO-31 renal was greater than 100 µM in each case. The TGI in the test on NCI-H23 lung and with SF-539 CNS was greater than 100 µM in each case.
Consider `COc1ccc(Nc2c3ccccc3nc3ccccc23)cc1`, for which the GI50 with SNB-19 CNS is 3.19 µM; in the test on OVCAR-3 ovarian it was 1.43 µM; in the test on HCT-116 colon, 0.576 µM; with SN12C renal, 2.18 µM; with U251 CNS, 2.55 µM; with TK-10 renal it was 2.78 µM. In addition, the results for the GI50 in the test on UO-31 renal and with SF-539 CNS were 1.21 µM and 2.95 µM, respectively. Also, the TGI in the test on SNB-19 CNS stood at 18.3 µM; in the test on OVCAR-3 ovarian, 5.78 µM; in the test on HCT-116 colon it was 11.5 µM; with SN12C renal it was 13 µM; in the test with U251 CNS, 14.1 µM; with TK-10 renal it was 13.7 µM. The TGI was found to be 5.27 µM in the test on UO-31 renal and 14.6 µM with SF-539 CNS.
In the case of `CC(C)CCN=C(N)c1ccc(N2CCN(c3ccc(C(N)=NCCC(C)C)cc3)CC2)cc1`, the GI50 is 6.52 µM with SNB-19 CNS; 11.3 µM in the test on OVCAR-3 ovarian; 9.52 µM in the test with HCT-116 colon; 7.52 µM with SN12C renal; 1 µM in the test on EKVX NSCLC; 13.9 µM in the test with U251 CNS. Besides, the GI50 is 9.08 µM in the test on TK-10 renal, 39.5 µM in the test with UO-31 renal and 3.75 µM with NCI-H23 lung. Besides, the TGI in the test with SNB-19 CNS came out at 24.2 µM; with OVCAR-3 ovarian it was 44.8 µM; in the test with HCT-116 colon, 33.5 µM; in the test with SN12C renal, 42.7 µM; in the test with EKVX NSCLC, 10.4 µM; with U251 CNS it was 32.9 µM. Moreover, the TGI in the test on TK-10 renal is 89.9 µM; in the test with UO-31 renal, greater than 100 µM; with NCI-H23 lung, 17.8 µM.
In the case of `C[C@]1(CO)CCC[C@@]2(C)C1CC[C@H]1CC3C[C@]12CC[C@]3(C)O` (stereo not given in full), the TGI with SNB-19 CNS, in the test on OVCAR-3 ovarian, in the test on HCT-116 colon, in the test on SN12C renal, in the test with U251 CNS and with TK-10 renal was greater than 100 µM each time. For the same compound, the TGI in the test with NCI-H23 lung and with SF-539 CNS was greater than 100 µM each time.
Take `COC1OC(COCc2ccc(Cl)cc2)C(OCc2ccc(Cl)cc2)C1N=[N+]=[N-]` (stereo not given): the TGI in the test with SNB-19 CNS, in the test on OVCAR-3 ovarian, in the test on HCT-116 colon, with SN12C renal, in the test on EKVX NSCLC and in the test on U251 CNS was greater than 100 µM in each case. For the same compound, the TGI in the test with TK-10 renal, in the test with UO-31 renal and in the test on NCI-H23 lung was greater than 100 µM in each case.
Regarding `COc1cc(Nc2ccnc(NCCCNc3ccnc4cc(Cl)ccc34)n2)cc(OC)c1`, the GI50 was 2.32 µM in the test on SNB-19 CNS; 1.95 µM in the test with OVCAR-3 ovarian; 0.842 µM with HCT-116 colon; 2 µM in the test with SN12C renal; 1.38 µM in the test on U251 CNS; 1.81 µM in the test with TK-10 renal. Further, the GI50 with UO-31 renal was 1.37 µM; in the test on NCI-H23 lung, 2.67 µM; in the test with SF-539 CNS, 1.58 µM. In addition, the TGI came to 8 µM in the test on SNB-19 CNS; 4.32 µM in the test with OVCAR-3 ovarian; 2.73 µM in the test with HCT-116 colon; 7.3 µM in the test on SN12C renal; 2.75 µM in the test with U251 CNS; 3.63 µM in the test with TK-10 renal. Besides, the TGI in the test on UO-31 renal was determined as 2.79 µM; in the test on NCI-H23 lung, 10.2 µM; in the test on SF-539 CNS, 3.09 µM.
For `COc1cc(/C=C/C(=O)c2ccc(NC(=O)CN3CCN(c4cc5c(cc4F)c(=O)c(C(=O)O)cn5C4CC4)CC3)cc2)cc(OC)c1OC`, the GI50 in the test with SNB-19 CNS is 2.71 µM; in the test with OVCAR-3 ovarian, 0.364 µM; in the test on HCT-116 colon, 0.324 µM; with SN12C renal it was 0.632 µM; in the test on U251 CNS, 0.373 µM; with TK-10 renal, 1.8 µM. For the same compound, the figures for the GI50 in the test with UO-31 renal, in the test with NCI-H23 lung and in the test on SF-539 CNS were 1.38 µM, 0.971 µM and 0.721 µM, respectively. In addition, the TGI with SNB-19 CNS is greater than 59.5 µM; in the test with OVCAR-3 ovarian it was 1.37 µM; in the test with HCT-116 colon it was 1.31 µM; in the test on SN12C renal it was 9.01 µM; with U251 CNS, 1.47 µM; in the test with TK-10 renal, 12.9 µM. The TGI in the test with UO-31 renal came out at 7.78 µM; in the test with NCI-H23 lung it was 4.89 µM; with SF-539 CNS, 3.03 µM.
On to `Cc1cccc2c(=O)c3c(sc12)c(NCCNCCO)nc1ccccc13`, for which the GI50 with OVCAR-3 ovarian is 1.55 µM; in the test on HCT-116 colon, 1.35 µM; in the test on SN12C renal, 1.54 µM; in the test with EKVX NSCLC, 1.5 µM; in the test on U251 CNS, 1.56 µM; in the test with UO-31 renal it was 1.09 µM. Moreover, the GI50 in the test on NCI-H23 lung is 1.58 µM; in the test on SF-539 CNS, 1.72 µM. Besides, the TGI with OVCAR-3 ovarian came to 2.99 µM; in the test on HCT-116 colon it was 2.72 µM; in the test on SN12C renal, 3.05 µM; in the test with EKVX NSCLC, 2.92 µM; in the test with U251 CNS it was 3.09 µM; in the test on UO-31 renal, 2.34 µM. The TGI in the test on NCI-H23 lung is 3.04 µM; with SF-539 CNS, 3.12 µM.
For `COc1cc2c3c(n(CCCI)c(=O)c2cc1OC)-c1cc2c(cc1C3=O)OCO2`, the GI50 is greater than 100 µM in the test on SNB-19 CNS; 11.2 µM in the test with OVCAR-3 ovarian; 2.6 µM in the test with HCT-116 colon; 1.21 µM in the test with U251 CNS; 14.7 µM with TK-10 renal; 2.53 µM in the test with UO-31 renal. Moreover, the GI50 with NCI-H23 lung was 7.24 µM; in the test on SF-539 CNS it was 4.04 µM. For the same compound, the TGI was greater than 100 µM in the test on SNB-19 CNS; greater than 100 µM in the test with OVCAR-3 ovarian; greater than 100 µM in the test with HCT-116 colon; 17.5 µM in the test on U251 CNS; 57 µM in the test on TK-10 renal; greater than 100 µM with UO-31 renal. Besides, the TGI in the test with NCI-H23 lung and with SF-539 CNS was greater than 100 µM in each case.
